Measured values published in ChEMBL document CHEMBL1127704 (J Med Chem, 1994).

Columns and labels:
[1] = molecular target: T1, Bifunctional dihydrofolate reductase-thymidylate synthase (Toxoplasma gondii, UniProt Q07422)
T1 sequence (Q07422 whole entry): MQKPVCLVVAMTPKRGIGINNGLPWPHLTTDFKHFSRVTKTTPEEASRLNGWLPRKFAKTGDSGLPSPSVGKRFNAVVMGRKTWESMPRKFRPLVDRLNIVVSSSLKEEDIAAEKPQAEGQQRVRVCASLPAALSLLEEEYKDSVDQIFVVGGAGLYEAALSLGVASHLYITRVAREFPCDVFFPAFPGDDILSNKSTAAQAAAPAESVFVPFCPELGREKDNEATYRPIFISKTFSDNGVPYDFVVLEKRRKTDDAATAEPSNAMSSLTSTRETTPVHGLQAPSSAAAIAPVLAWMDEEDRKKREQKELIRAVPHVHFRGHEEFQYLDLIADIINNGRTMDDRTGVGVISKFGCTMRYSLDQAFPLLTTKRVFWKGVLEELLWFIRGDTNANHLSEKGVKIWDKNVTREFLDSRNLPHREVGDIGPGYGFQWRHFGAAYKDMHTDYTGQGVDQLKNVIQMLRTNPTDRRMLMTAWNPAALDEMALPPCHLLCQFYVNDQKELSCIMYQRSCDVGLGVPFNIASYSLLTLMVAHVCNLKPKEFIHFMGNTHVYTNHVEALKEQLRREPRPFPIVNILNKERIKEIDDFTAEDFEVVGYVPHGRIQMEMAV
Description: Inhibition of Dihydrofolate reductase of Toxoplasma gondii

Dihydrofolate reductase [2] = molecular target: T2, Dihydrofolate reductase (Rattus norvegicus, UniProt Q920D2)
T2 sequence (Q920D2 whole entry): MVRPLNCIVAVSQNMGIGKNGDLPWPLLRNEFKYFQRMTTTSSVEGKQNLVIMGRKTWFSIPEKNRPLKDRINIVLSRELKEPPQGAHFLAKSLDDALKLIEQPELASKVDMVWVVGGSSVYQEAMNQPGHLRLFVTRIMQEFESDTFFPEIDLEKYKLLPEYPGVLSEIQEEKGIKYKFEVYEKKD
Description: Inhibition of Dihydrofolate reductase (DHFR) of in rat liver

Dihydrofolate reductase [3] = molecular target: T3, Dihydrofolate reductase (Pneumocystis carinii, UniProt P16184)
T3 sequence (P16184 whole entry): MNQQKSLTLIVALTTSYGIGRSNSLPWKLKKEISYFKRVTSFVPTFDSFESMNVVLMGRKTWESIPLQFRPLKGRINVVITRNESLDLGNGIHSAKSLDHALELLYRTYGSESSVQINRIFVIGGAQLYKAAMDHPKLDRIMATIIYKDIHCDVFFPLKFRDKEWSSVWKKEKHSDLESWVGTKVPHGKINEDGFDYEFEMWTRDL
Description: Inhibition of Dihydrofolate reductase of Pneumocystis carinii

SMILES	IC50 (Dihydrofolate reductase [2]) [nM]	IC50 (Dihydrofolate reductase [3]) [nM]	IC50 [1] [nM]
COc1cc(CNc2ccc3nc(N)nc(N)c3c2Cl)cc(OC)c1OC	6	33	7
COc1ccc(OC)c(CNc2ccc3nc(N)nc(N)c3c2Cl)c1	28	53	17
COc1cc(CN(C)c2ccc3nc(N)nc(N)c3c2Cl)cc(OC)c1OC	38	170	16
COc1cc(CCNc2ccc3nc(N)nc(N)c3c2Cl)cc(OC)c1OC	5400	43000	2600
COc1cc(CCCNc2ccc3nc(N)nc(N)c3c2Cl)cc(OC)c1OC		95000	14000
COc1cc(N(C)Cc2ccc3nc(N)nc(N)c3c2Cl)cc(OC)c1OC			6.4

Further lines, with some results ahead:

IC50 (Dihydrofolate reductase [2]) [nM]	IC50 (Dihydrofolate reductase [3]) [nM]	SMILES	IC50 [1] [nM]
1900	26000	COc1ccc(OC)c(CCCNc2ccc3nc(N)nc(N)c3c2Cl)c1	1000
	12000	COc1ccc(OC)c(CCNc2ccc3nc(N)nc(N)c3c2Cl)c1	990
44	51	COc1ccc(OC)c(NCc2ccc3nc(N)nc(N)c3c2Cl)c1	30
5.9	33	COc1cc(NCc2ccc3nc(N)nc(N)c3c2Cl)cc(OC)c1OC	5.2
